The values that follow come from patent US7928095B2, “Treatment of resistant or refractory cancers with multi-arm polymeric conjugates of 7-ethyl-10-hydroxycamptothecin” (Enzon Pharmaceuticals, Inc., priority 2007, dated 2011).

Data set [1] has as its system refractory human HT-29 colorectal tumor. Nature of the data set: Therapeutic efficacy in CPT-11 refractory human HT-29 colorectal tumor xenografted nude mice. In kind it is in vivo. The procedure: Therapeutic efficacy of four-arm PET-Gly-(7-ethyl-10-hydroxycamptothecin) against a refractory human HT-29 colorectal tumor grown in nude mice was determined. […] When tumors reached an average volume of 100 mm^3, mice were treated with CPT-11 (40 mg/kg/dose; q2d×4). Mice were monitored for tumor growth. […] These mice were selected, randomized and divided into two groups. […] The drugs were administered intravenously via the tail vein.
The data in FIG. 1 represent mean±standard deviation (n=7).
Background: Xenograft models place foreign cells or tissue in a host animal.

In data set [2] the test system is Human HT-29 colorectal tumors. As to the kind of experiment: Therapeutic efficacy in HT-29 colorectal tumor xenografted mice, second round treatment after CPT-11. Type of data set: in vivo, nude mice. Here is the method: When tumors reached an average volume of 100 mm^3, mice were treated with CPT-11 (40 mg/kg/dose; q2d×4). Mice were monitored for tumor growth. […] One group was further treated with MTD of CPT-11 (40 mg/kg/dose; q2d×5) and the other group was treated with MTD of four-arm ^40KPEG-Gly-(7-ethyl-10-hydroxycamptothecin) (10 mg/kg/dose q2d×5) starting day 16. The drugs were administered intravenously via the tail vein.
The data in FIG. 2 represent mean±standard deviation (n=10).

Data set [3] has as its system CPT-refractory cell line (CEM/C2). The settings on record: CEM/C2 cells, 2 days at 37° C., MTS; FIG. 3. The procedure: CPT-refractory cell line (CEM/C2) and the corresponding non-refractory parent cell line (CEM) were treated with PEG-Gly-(7-ethyl-10-hydroxycamptothecin), 7-ethyl-10-hydroxycamptothecin, and CPT-11. The CEM/C2 and CEM were obtained from NCI. The CEM cell lines are acute lymphoblastic leukemia cell lines. The in vitro cytotoxicity of each drug was determined using a MTS assay. […] At the end of the incubation, MTS dye was added and incubated for 2 to 3 hours at 37° C. and formation of a colored product (formazan) was measured at 490 nm. The % viability at each drug concentration was calculated as [OD test samples−background]/[OD controls (no treatment)−background]. Sigmoidal dose response curves were generated by plotting Log (Drug) as a function of % viability (survival) and IC50 values were calculated using the GraphPad Prism software.

As for “four-arm ^40KPEG-Gly-(7-ethyl-10-hydroxycamptothecin) [compound 9]”, in data set [1] (by day 72), the “mice with tumors <1,650 mm^3” value is on record as 58%. Further, the “tumor volume decreased compared to day 15” value in data set [1] (day 42, CPT-11 refractory mice, 10 mg/kg/dose q2d×5 i.v. starting day 16) is listed as 25%. In data set [1] (on day 63, n=7), the animals sacrificed is 1 of 7. The “tumor volume increased compared to day 1” value in data set [2] (day 54, CPT-11 sensitive mice, second round treatment q2d×5 i.v. starting day 16) was determined as 193%. Also, the deaths recorded entry in data set [2] (on day 61) was “No deaths”. Also, the “potency relative to CPT-11 (cytotoxicity IC50)” value in data set [3] is on record as “about 10 fold”.
For the compound `CCc1c2c(nc3ccc(OC(=O)N4CCC(N5CCCCC5)CC4)cc13)-c1cc3c(c(=O)n1C2)COC(=O)[C@]3(O)CC` [CPT-11, Irinotecan, reference compound], the “animals sacrificed due to excessive tumor burden (>1,650 mm^3)” value in data set [1] (by day 42) amounted to 29%; in data set [1] (by day 54), 100%. In addition, the “animals sacrificed due to excessive tumor burden” value in data set [2] (as of day 61) stood at 60%.
